The target of assay [1] is V-ATPase (vacuolar proton translocating ATPase) (Saccharomyces cerevisiae, UniProt P25515+P32563). The assay can be described thus: BCECF flow cytometry dose response in living yeast. The class given is cell-based.
In assay [2] the target is V-ATPase (vacuolar proton translocating ATPase; catalytic subunit A) (Saccharomyces cerevisiae, UniProt P16140+P17255). The assay can be described thus: ATP hydrolysis. In kind it is biochemical.

SMILES strings stand for the structures.

V-ATPase (vacuolar proton translocating ATPase; catalytic subunit A), sequence (P17255 2-283): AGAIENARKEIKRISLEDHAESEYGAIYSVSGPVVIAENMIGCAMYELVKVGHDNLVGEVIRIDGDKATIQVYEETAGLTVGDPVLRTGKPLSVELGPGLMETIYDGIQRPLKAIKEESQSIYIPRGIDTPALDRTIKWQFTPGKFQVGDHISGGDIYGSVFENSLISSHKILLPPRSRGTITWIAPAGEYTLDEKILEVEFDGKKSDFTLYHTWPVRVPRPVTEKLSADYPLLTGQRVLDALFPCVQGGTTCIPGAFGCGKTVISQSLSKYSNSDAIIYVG
V-ATPase (vacuolar proton translocating ATPase; catalytic subunit A), sequence (P17255 738-1071): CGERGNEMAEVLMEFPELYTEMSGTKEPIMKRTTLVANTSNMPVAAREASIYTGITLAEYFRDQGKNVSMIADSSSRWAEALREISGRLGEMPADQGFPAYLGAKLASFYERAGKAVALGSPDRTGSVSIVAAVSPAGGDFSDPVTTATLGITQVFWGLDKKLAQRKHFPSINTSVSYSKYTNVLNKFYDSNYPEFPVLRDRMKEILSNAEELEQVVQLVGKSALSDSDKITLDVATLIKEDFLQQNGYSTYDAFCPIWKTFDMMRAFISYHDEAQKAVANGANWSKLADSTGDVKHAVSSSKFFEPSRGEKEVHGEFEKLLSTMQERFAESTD
V-ATPase (vacuolar proton translocating ATPase; catalytic subunit A), sequence (P16140 2-517): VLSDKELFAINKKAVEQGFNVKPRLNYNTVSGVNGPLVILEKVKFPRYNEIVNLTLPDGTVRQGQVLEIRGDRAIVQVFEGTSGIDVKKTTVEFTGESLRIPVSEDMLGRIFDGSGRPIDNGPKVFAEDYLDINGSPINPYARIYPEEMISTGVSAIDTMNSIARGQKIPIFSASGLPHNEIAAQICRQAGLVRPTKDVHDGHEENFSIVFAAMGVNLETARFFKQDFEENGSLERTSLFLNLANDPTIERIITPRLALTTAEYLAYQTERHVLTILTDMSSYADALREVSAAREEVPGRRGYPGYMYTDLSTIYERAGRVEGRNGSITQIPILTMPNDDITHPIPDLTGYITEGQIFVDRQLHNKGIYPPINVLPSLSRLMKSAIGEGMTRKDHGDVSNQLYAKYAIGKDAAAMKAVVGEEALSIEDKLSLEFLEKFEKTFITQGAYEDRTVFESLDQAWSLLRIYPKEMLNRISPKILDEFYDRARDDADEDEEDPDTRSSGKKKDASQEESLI
V-ATPase (vacuolar proton translocating ATPase; catalytic subunit A), sequence (P25515 whole entry partner): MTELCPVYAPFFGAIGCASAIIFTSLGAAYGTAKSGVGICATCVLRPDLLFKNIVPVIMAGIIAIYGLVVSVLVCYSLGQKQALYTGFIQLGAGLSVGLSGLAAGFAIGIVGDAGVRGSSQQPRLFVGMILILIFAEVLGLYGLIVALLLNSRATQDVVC
V-ATPase (vacuolar proton translocating ATPase; catalytic subunit A), sequence (P32563 2-840 partner): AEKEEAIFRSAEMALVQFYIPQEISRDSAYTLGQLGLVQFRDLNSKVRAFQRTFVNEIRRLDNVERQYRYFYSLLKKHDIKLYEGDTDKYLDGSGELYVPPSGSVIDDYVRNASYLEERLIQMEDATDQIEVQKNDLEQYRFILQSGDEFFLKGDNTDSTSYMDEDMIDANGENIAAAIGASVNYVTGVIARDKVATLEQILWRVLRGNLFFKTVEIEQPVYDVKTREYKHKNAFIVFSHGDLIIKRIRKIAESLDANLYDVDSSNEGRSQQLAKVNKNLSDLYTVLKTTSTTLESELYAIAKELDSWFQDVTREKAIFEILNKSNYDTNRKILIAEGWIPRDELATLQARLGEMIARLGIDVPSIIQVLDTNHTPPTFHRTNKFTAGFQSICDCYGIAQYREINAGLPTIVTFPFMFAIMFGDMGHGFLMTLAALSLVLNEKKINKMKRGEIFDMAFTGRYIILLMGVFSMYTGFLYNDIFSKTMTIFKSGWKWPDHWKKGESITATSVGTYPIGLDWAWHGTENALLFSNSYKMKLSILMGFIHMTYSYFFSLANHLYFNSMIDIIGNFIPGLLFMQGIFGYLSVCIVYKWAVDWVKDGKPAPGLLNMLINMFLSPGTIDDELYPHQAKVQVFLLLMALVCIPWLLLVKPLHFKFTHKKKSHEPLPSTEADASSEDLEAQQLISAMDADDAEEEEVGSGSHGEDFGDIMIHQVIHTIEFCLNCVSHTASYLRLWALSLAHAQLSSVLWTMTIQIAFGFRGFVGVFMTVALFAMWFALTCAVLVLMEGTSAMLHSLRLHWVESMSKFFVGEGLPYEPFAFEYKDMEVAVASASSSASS

On to `C/C=C/[C@H]1O[C@@](O)([C@@H](C)[C@H](O)[C@H](C)[C@H]2OC(=O)/C(OC)=C/C(C)=C/[C@@H](C)[C@@H](O)[C@@H](CC)[C@@H](O)[C@H](C)C/C(C)=C/C=C/[C@@H]2OC)C[C@@H](O[C@H]2C[C@@H](O)[C@H](OC(N)=O)[C@@H](C)O2)[C@@H]1C` [concanamycin A], for which the EC50 (usually the concentration giving half of the maximal effect) in assay [1] was 2.1 to 2.27 µM.
`CCN(CC)C(=S)SSC(=S)N(CC)CC` [disulfiram]: the EC50 in assay [2] was found to be 24.7 µM. That is a double-digit micromolar value.
